Measurements reported in the supplement of paper PMC5579334.
± gives the standard deviation of the averaged measurements.

Tests used:
HS-Sch-2 [1] = assay: drug sensitivity score (DSS, CellTiter-Glo viability, 72 h) (DSS (dimensionless)); higher = more sensitive; extreme values may be limits of the assay
Outline: (§1)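 Viability of MPNST cell lines and primary human Schwann cells was read as CellTiter-Glo ATP luminescence after 72 h at 37 °C, 5% CO2, in 384-well plates seeded with 750–1000 cells per well. Each compound had been preprinted at five concentrations in 10-fold steps. Signals were scaled between vehicle and positive-control wells, duplicates averaged where present, and fitted with four-parameter logistic curves. Drug sensitivity score and relative IC50 (censored at the top concentration) come from those fits, and percent inhibition is taken at the top concentration.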

YST-1 [2] = assay: as above
Outline: as §1

S462 [3] = assay: as above
Outline: as §1

HS-PSS [4] = assay: as above
Outline: as §1

STS26T [5] = assay: as above
Outline: as §1

[6] = system: HSC2 (primary human Schwann cells); assay: as above
Outline: as §1

S1507-2 [7] = assay: as above
Outline: as §1

[8] = system: HSC1 (primary human Schwann cells); assay: as above
Outline: as §1

ST8814 [9] = assay: as above
Outline: as §1

HS-Sch-2 [10] = assay: % inhibition of CellTiter-Glo viability at highest tested concentration (72 h), relative to DMSO and benzethonium chloride controls; higher = more inhibition
Outline: as §1

YST-1 [11] = assay: as above
Outline: as §1

S462 [12] = assay: as above
Outline: as §1

HS-PSS [13] = assay: as above
Outline: as §1

STS26T [14] = assay: as above
Outline: as §1

[15] = system: HSC2 (primary human Schwann cells); assay: as above
Outline: as §1

S1507-2 [16] = assay: as above
Outline: as §1

[17] = system: HSC1 (primary human Schwann cells); assay: as above
Outline: as §1

ST8814 [18] = assay: as above
Outline: as §1

HS-PSS [19] = assay: drug sensitivity score (DSS, CellTox-Green cytotoxicity, 72 h) (DSS (dimensionless)); higher = more cytotoxic; extreme values may be limits of the assay
Outline: (§2)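 MPNST cell lines and primary human Schwann cells were grown for 72 h at 37 °C in 384-well plates containing five 10-fold compound dilutions. CellTox-Green, added before seeding at a final 1:1000 dilution, gave fluorescence from DNA released by disrupted cells, and signals were scaled to vehicle and positive-control wells. Curves were fitted with a four-parameter logistic model. Drug sensitivity score and relative IC50 come from these fits, with IC50 censored at the top concentration.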

STS26T [20] = assay: as above
Outline: as §2

[21] = system: HSC2 (primary human Schwann cells); assay: as above
Outline: as §2

S1507-2 [22] = assay: as above
Outline: as §2

[23] = system: HSC1 (primary human Schwann cells); assay: as above
Outline: as §2

ST8814 [24] = assay: as above
Outline: as §2

Row | SMILES | drug sensitivity score (HS-Sch-2 [1]) | drug sensitivity score (YST-1 [2]) | drug sensitivity score (S462 [3]) | drug sensitivity score (HS-PSS [4]) | drug sensitivity score (STS26T [5]) | drug sensitivity score [6] | drug sensitivity score (S1507-2 [7]) | drug sensitivity score [8] | drug sensitivity score (ST8814 [9]) | % inhibition (HS-Sch-2 [10]) [%] | % inhibition (YST-1 [11]) [%] | % inhibition (S462 [12]) [%] | % inhibition (HS-PSS [13]) [%] | % inhibition (STS26T [14]) [%] | % inhibition [15] [%] | % inhibition (S1507-2 [16]) [%] | % inhibition [17] [%] | % inhibition (ST8814 [18]) [%] | drug sensitivity score (HS-PSS [19]) | drug sensitivity score (STS26T [20]) | drug sensitivity score [21] | drug sensitivity score (S1507-2 [22]) | drug sensitivity score [23] | drug sensitivity score (ST8814 [24])
1 | CN(C)/N=N/c1[nH]cnc1C(N)=O [Dacarbazine] (max concentration tested 10000 nM) | 0 | 0 | 0.065 ± 0.092 | 0 | 1.17 | 0 | 0 | 0 | 0 | 7.05 | -4.08 | 8.66 ± 8.8 | 7.14 | 23.5 | -1.82 | -5.83 ± 6.6 | 9.74 | 3.31 | 0 | 0 | 0 | 0.828 ± 1.2 | 0 | 0
2 | N#Cc1ccc(C(c2ccc(C#N)cc2)n2cncn2)cc1 [Letrozole] (max concentration tested 10000 nM) | 0.34 | 0 | 0 | 0 | 0 | 0 | 0 | 0 | 0 | 14.7 | 7.25 | -4.84 ± 2.2 | 10.6 | 3.15 | 3.35 | -4.25 ± 4.2 | 1.16 | -5.31 | 0 | 0 | 0 | 0 | 0 | 0
3 | CO[C@H]1C[C@@H]2CC[C@@H](C)[C@@](O)(O2)C(=O)C(=O)N2CCCC[C@H]2C(=O)O[C@H]([C@H](C)C[C@@H]2CC[C@@H](O)[C@H](OC)C2)CC(=O)[C@H](C)/C=C(\C)[C@@H](O)[C@@H](OC)C(=O)[C@H](C)C[C@H](C)/C=C/C=C/C=C/1C [Sirolimus] (max concentration tested 100 nM) | 3.47 | 6.14 | 0 | 4.11 | 1.7 | 1.62 | 0.128 ± 0.18 | 0.673 | 0.411 | 29.1 | 45.1 | 1.96 ± 4.9 | 32.9 | 27.9 | 23.2 | 5.52 ± 9 | 24.6 | 14.7 | 0 | 0 | 0 | 0.0997 ± 0.14 | 0 | 0
4 | CCn1c(C(=O)N(C2CC2)C2CC2)cc2c3c(ncn3C)c(Nc3cc(C)n(C)n3)nc21 (max concentration tested 10000 nM) | 0.17 | 2.34 | 0 | 0 | 0 | 0 | 0.094 ± 0.13 | 0 | 0 | 16 | 29.6 | 0.708 ± 7.6 | 8.84 | 2.67 | -0.298 | 3.94 ± 19 | 9.48 | 7.29 | 0 | 0 | 0 | 0 | 0 | 0
5 | CN(C)C[C@@H]1CCn2cc(c3ccccc32)C2=C(C(=O)NC2=O)c2cn(c3ccccc23)CCO1 [Ruboxistaurin] (max concentration tested 10000 nM) | 5.19 | 10 | 6.12 ± 0.41 | 5.24 | 5.76 | 7.78 | 7.37 ± 0.77 | 5.06 | 3.54 | 100 | 99.7 | 78.9 ± 11 | 86.7 | 97.6 | 96.3 | 98.5 ± 4.9 | 93.9 | 39.6 | 1.36 | 6.98 | 8.33 | 6.69 ± 0.61 | 7.83 | 0.807
6 | CCN(CCO)CCCOc1ccc2c(Nc3cc(CC(=O)Nc4cccc(F)c4)[nH]n3)ncnc2c1 [AZD1152-HQPA] (max concentration tested 1000 nM) | 0 | 11.2 | 8.6 ± 0.56 | 0.81 | 4.07 | 8.05 | 3.8464 ± 7.1e-05 | 7.19 | 4.68 | 0.66 | 40.6 | 35.8 ± 1.1 | 9.86 | 41.2 | 39.6 | 37.8 ± 7.3 | 34.7 | 51.2 | 0 | 3.61 | 0.941 | 0 | 0 | 4.15
7 | CC(C)n1cnc2c(NCCc3ccc(O)cc3)nc(-c3csc4ccccc34)nc21 [StemRegenin 1] (max concentration tested 10000 nM) | 4.66 | 0 | 0.493 ± 0.7 | 2.39 | 1.69 | 2.51 | 0.495 ± 0.7 | 1.71 | 1.77 | 92.9 | -1.94 | 15.8 ± 7.6 | 46.5 | 41.7 | 37 | 19 ± 17 | 42 | 31.3 | 0 | 0.0972 | 0 | 0 | 0 | 0
8 | Cc1c(Cn2c(C)nc3c(C(=O)O)cc(N4CCOCC4)cc32)cccc1C(F)(F)F (max concentration tested 10000 nM) | 0 | 0 | 0 | 1.06 | 0.72 | 0 | 3.59 ± 0.27 | 0 | 0.197 | 8.95 | 4.11 | 3.26 ± 4.3 | 19.4 | 17.6 | 5.2 | 33.6 ± 5.3 | 4.46 | 11.8 | 0 | 0 | 0 | 0 | 0 | 0
9 | COc1cccc2c1C(=O)c1c(O)c3c(c(O)c1C2=O)C[C@@](O)(C(C)=O)C[C@@H]3O[C@H]1C[C@H](N)[C@H](O)[C@H](C)O1 [Daunorubicin] (max concentration tested 1000 nM) | 10.6 | 17.9 | 14.9 ± 0.27 | 9.45 | 12.9 | 12.7 | 9.24 ± 0.51 | 10.4 | 9.95 | 102 | 101 | 98.64 ± 0.44 | 88.2 | 98.5 | 101 | 96.11 ± 0.088 | 99.9 | 88.3 | 0 | 3.13 | 3.16 | 0 | 2.35 | 1.13
10 | CCc1c(C(=O)C(N)=O)c2c(OCC(=O)O)cccc2n1Cc1ccccc1 [Varespladib] (max concentration tested 10000 nM) | 0 | 0 | 0.641 ± 0.91 | 0 | 0 | 0 | 0.0077 ± 0.011 | 0.748 | 0 | 0.4 | 3.3 | 7.05 ± 10 | 4.52 | 7.98 | 9.85 | 6.19 ± 5.8 | 13.8 | 5.74 | 0 | 0 | 0 | 0.519 ± 0.73 | 0 | 0
11 | CC[C@@]1(O)C(=O)OCc2c1cc1n(c2=O)Cc2cc3c(CN(C)C)c(O)ccc3nc2-1 [Topotecan] (max concentration tested 10000 nM) | 21.7 | 26.3 | 27.08 ± 0.12 | 14.6 | 18.3 | 22 | 18.9 ± 2.7 | 19.6 | 27.2 | 101 | 99.7 | 96 ± 1.4 | 87.1 | 92.2 | 93.5 | 92.99 ± 0.57 | 91.1 | 93.6 | 11.1 | 15.6 | 18.4 | 16.1 ± 2.5 | 27.9 | 32.1
12 | COc1cc2nccc(Oc3ccc(NC(=O)Nc4cc(C)on4)c(Cl)c3)c2cc1OC [Tivozanib] (max concentration tested 10000 nM) | 2.18 | 4.22 | 6.863 ± 0.013 | 2 | 3.66 | 6.35 | 10.5 ± 0.46 | 5.86 | 0 | 51.3 | 58.2 | 58.9 ± 1.3 | 46.2 | 45.5 | 73.9 | 42.795 ± 0.006 | 67.7 | 36.2 | 0 | 1.82 | 0 | 0.631 ± 0.89 | 0.17 | 1.94
13 | CCCS(=O)(=O)Nc1ccc(F)c(C(=O)c2c[nH]c3ncc(-c4ccc(Cl)cc4)cc23)c1F [Vemurafenib] (max concentration tested 10000 nM) | 1.24 | 0 | 0 | 1.03 | 3.31 | 6.66 | 0.879 ± 1.2 | 6.16 | 0 | 34.4 | 1.68 | 12.6 ± 17 | 29.3 | 41.5 | 70.7 | 7.31 ± 3.8 | 70.2 | 1.91 | 0 | 2.82 | 0 | 0 | 0 | 0.417
